Test results taken from patent US20260063641A1, “COMPOSITIONS AND METHODS FOR LABELING AND DETECTING BINDING PARTNERS” (UNIVERSITY OF UTAH RESEARCH FOUNDATION, priority 2022, published 2026).
“Also recorded” adds a separate entry of the source.

What was measured:
Format in all cases: cell-based
NLuc-FKBP12F36V = target: T1, NLuc-FKBP12F36V (Homo sapiens, UniProt P62942, F37V); assay: FKBP12F36V cellular target engagement assay (competition with dTAG-13, NLuc/FLuc signal); conditions: mean±S.D. of n=3 technical replicates, FIG. 4D-F
T1 construct: expressed in transfected cells
T1 sequence (P62942 2-108 F37V limits assumed): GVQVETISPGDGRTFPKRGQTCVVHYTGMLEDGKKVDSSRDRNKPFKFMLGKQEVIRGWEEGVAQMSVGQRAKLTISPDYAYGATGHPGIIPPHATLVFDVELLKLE
Source text: This method, named the biotin targeting chimera (BioTAC) system, uses bifunctional molecules composed of a compound-of-interest linked to selective FKBP12F36V recruiter orthoAP1867, to recruit a ligandable proximity labeling enzyme (mTurbo-FKBP12F36V) to compound-bound complexes enabling their biotinylation and subsequent affinity purification (FIG. TA-B). To benchmark the BioTAC system for accurate detection of the direct targets of ligands the well-characterized BET protein inhibitor (+)-JQ1, which potently binds BRD2, BRD3 and BRD4 (as well as the testes-specific BET protein BRDT), was selected as a test case. A series of bifunctional molecules consisting of (+)-JQ1 conjugated to […] were synthesized via a variable linker (FIG. 1B, FIG. 4A-C). (+)-JQ1-bifunctional molecule cell permeability was measured using an FKBP12F36V cellular target engagement assay adapted from Nabet et. al Nat Commun 11, 4687 (2020). Briefly, FKBP12F36V binding molecules compete with an FKBP12F36V targeting PROTAC (dTAG-13), for NLuc-FKBP12F36V occupancy, rescuing degradation and resulting in an increase in NLuc/FLuc (control) signal relative to DMSO-treated cells. All synthesized compounds were comparably cell permeable (FIG. 4D-E).

[1] = target: BRD2, BRD3 and BRD4 (BET proteins) and interactors (Homo sapiens, UniProt P25440); assay: BioTAC proximity labeling with label-free mass spectrometry-based proteomics of streptavidin-enriched biotinylated proteins; conditions: 1 μM, 4 hr timepoint
BRD2, BRD3 and BRD4 (BET proteins) and interactors (Homo sapiens, UniProt P25440), sequence (P25440 whole entry): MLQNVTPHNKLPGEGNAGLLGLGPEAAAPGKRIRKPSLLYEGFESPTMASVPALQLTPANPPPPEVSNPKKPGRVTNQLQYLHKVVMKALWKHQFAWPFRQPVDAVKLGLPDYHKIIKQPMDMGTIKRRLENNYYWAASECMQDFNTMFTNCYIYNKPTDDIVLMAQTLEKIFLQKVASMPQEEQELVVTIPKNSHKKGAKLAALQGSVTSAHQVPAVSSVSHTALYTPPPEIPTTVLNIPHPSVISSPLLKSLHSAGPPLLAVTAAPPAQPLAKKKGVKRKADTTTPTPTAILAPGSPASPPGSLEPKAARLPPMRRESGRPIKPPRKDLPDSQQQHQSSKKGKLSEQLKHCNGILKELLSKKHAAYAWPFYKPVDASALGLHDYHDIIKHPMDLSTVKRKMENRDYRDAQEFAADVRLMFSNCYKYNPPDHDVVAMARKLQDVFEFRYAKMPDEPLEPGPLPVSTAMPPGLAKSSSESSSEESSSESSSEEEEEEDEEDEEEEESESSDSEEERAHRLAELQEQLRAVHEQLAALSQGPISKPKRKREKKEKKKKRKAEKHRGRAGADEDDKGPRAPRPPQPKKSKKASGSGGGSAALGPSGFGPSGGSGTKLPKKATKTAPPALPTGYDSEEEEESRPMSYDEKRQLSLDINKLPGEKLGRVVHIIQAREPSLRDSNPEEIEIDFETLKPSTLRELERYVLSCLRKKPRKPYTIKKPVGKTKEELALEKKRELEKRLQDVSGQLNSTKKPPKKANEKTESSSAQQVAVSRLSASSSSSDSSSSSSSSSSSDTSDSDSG
BRD2, BRD3 and BRD4 (BET proteins) and interactors (Homo sapiens, UniProt P25440), sequence (as listed by the source partner): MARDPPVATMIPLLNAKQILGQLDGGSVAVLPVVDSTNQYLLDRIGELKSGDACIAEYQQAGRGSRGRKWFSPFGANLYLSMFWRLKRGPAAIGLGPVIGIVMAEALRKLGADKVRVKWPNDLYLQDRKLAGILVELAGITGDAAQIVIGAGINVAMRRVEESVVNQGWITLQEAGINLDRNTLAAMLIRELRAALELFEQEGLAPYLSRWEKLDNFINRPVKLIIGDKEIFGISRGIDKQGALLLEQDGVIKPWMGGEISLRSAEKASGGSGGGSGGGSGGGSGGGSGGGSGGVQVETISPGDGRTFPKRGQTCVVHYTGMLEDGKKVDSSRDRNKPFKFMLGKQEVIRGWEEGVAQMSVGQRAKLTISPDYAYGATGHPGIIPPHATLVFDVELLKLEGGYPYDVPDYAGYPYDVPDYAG
Experimental: (§1) Having determined that the BioTAC system could identify BRD4 as a (+)-JQ1 target in focused screens, it was evaluated as an unbiased target-ID method. To identify direct binders of (+)-JQ1 proteome-wide, BioTAC proximity labelling experiments were performed as described above, followed by label-free mass spectrometry-based proteomic analysis of biotinylated proteins enriched following a 30 minute treatment with 100 μM biotin plus DMSO or 1 μM Cpd1, and then 1 μM Cpd1 off-competed by pre-treatment with 10 μM free (+)-JQ1.
(§2) Having established conditions for determining the primary targets of small molecules using the BioTAC system, its utility in reading out the interactome sphere of (+)-JQ1 bound BET-proteins was next investigated. An advantage of the BioTAC system is the relatively long half-life of the activated biotin-AMP intermediate generated by TurboID, allowing the labelling radius to be increased up to 35 nm by extending the labelling time. To quantitively evaluate the ability of the BioTAC system to successfully enrich the known interactome of (+)-JQ1 bound BET proteins, time course BioTAC proximity labelling experiments were performed at the 1 h and 4 h time points, and evaluated streptavidin-enriched biotinylated proteins using mass spectrometry-based proteomic analysis (FIG. 2A-C, FIG. 6). Longer time points correlated with a greater number of proteins meeting the significance cut-offs (defined as FC>2, P<0.05) for both enrichment in Cpd1 vs. DMSO, and competition with free (+)-JQ1 in Cpd1 vs. Cpd1+10 μM (+)-JQ1, (FIG. 2A, FIG. 6). […] Additionally, identified hit proteins at 1-4 hrs also included many known BET interactors, such as proteins found in components of the Pol II productive elongation complex subunit P-TEFb, the TFILD complex, and the Nucleosome Remodeling Deacetylase (NuRD) complex, as well as known BRD4 direct-binder Histone H4. […] To test this hypothesis the hits were compared to an extensive BET protein interactome reference dataset identified using AP/MS and proximity labelling coupled to mass spectrometry with and without (+)-JQ1. The BioTAC system afforded significant enrichment and off-competition (P<0.0001, one-way ANOVA) of identified reference interactors at the 4 h time point (FIG. 2B). Next it was asked whether the inverse could be performed, enriching complex members identified by Lambert et al. Mol Cell 73, 621-638 e617 (2019) directly from the data without any a priori knowledge of known interactors. It was discovered that 60% of the statistically significant enriched and (+)-JQ1 rescued hits were also present in the Lambert dataset. This observation falls greater than 7 standard deviations above a random bootstrap analysis of the data without filtering for significant enrichment and (+)-JQ1 rescue (FIG. 2C).
(§3) 9 million HEK293 cells were plated into 15 cm dishes containing 12 mL of complete media (DMEM, 10% FBS, 1% pen/strep) and incubated overnight. Cells were transiently transfected with 1 mL of OptiMEM media containing 10 μg of BioTAC plasmid and 30 μL of TransIT-2020 transfection reagent for 24 hr. Following a media change, cells were optionally pre-treated with parental molecules for 10 min, then treated with bifunctional compound for 10 min, and finally labeled in 100 μM biotin for 30 min, 1 hr, or 4 hrs. Cells were washed 5 times with DPBS then harvested by scraping on ice into 1.5 mL tubes. […] Lysates were clarified by centrifuging at 16,000×g for 10 min and protein concentration determined by BCA assay. […]

[2] = tested on: BRD2, BRD3 and BRD4 (BET proteins) and interactors; assay: as above
Experimental: as §1, §2, §3

**Q.** Which “competitive displacement of dTAG-13 (FKBP12F36V cellular target engagement)” value (NLuc-FKBP12F36V) does the source give for `CC[C@H](C(=O)N1CCCC[C@H]1C(=O)O[C@H](CCc1ccc(OC)c(OC)c1)c1ccccc1OCC(=O)NCCOCCOCCOCCNC(=O)C[C@@H]1N=C(c2ccc(Cl)cc2)c2c(sc(C)c2C)-n2c(C)nnc21)c1cc(OC)c(OC)c(OC)c1` [Cpd1, (R)-1-(2-((17-((S)-4-(4-Chlorophenyl)-2,3,9-trimethyl-6H-thieno[3,2-f][1,2,4]triazolo[4,3-a][1,4]diazepin-6-yl)-2,16-dioxo-6,9,12-trioxa-3,15-diazaheptadecyl)oxy)phenyl)-3-(3,4-dimethoxyphenyl)propyl (S)-1-((S)-2-(3,4,5-trimethoxyphenyl)butanoyl)piperidine-2-carboxylate] here?
**A.** The value was “competitive displacement of dTAG-13”.

**Q.** What about the “detection of BRD2 (proteomics)” value [1] of the same compound?
**A.** Its value is “detected”.

**Q.** What about the “identification of BET-containing complexes (proteomics heatmap)” value ([2]; 1 μM with DMSO, 10 μM or 100 μM (+)-JQ1, FC>3, P<0.05) of the same compound?
**A.** Its value is “identifies known BET-containing complexes”.

**Q.** What about the “enrichment and off-competition of BRD3 and BRD4 (time course proteomics)” value ([2]; 1 μM, 30 min, 1 h and 4 h, vs DMSO and +10 μM (+)-JQ1, FC>2, P<0.05) of the same compound?
**A.** Its value is “significantly enriched and off-competed at all time points”.

**Q.** What about the “fold-change of reference BRD2, BRD3 and BRD4 interactors (Lambert et al.), rescue by (+)-JQ1” value ([2]; 4 hr time point, P<0.0001, 1-way ANOVA) of the same compound?
**A.** Its value is “statistically significant rescue”.

**Q.** And the “enrichment of BRD3 and BRD4 among biotinylated proteins (proteomics)” value ([2]; HEK293, 1 μM, 100 μM biotin, 30 min, vs DMSO and 10 μM (+)-JQ1 off-compete)?
**A.** Its value is “Highly selective enrichment of known (+)-JQ1 targets BRD3 and BRD4; also recorded: significant enrichment of BRD3 and BRD4”.
